Measurements: paper PMC11522901, “Translation of Deoxyribonucleic Acid into Synthetic Alpha Helical Peptides for Darwinian Evolution” (JACS Au, 2024)
*1 amine or outer side, *2 acyl side, *3 side chain or, on linkers, in order; H or OH if unused. Where a SMILES comes first, the peptide text is derived from it. Bridges are numbered along the chain shown (N, C = ends). [ ]: non-standard residue; d: D form. Diglycolyl = O=C(COCC(=O)[*:2])[*:1]; Cba = N[C@@H](CC1CCC1)C(=O)O; Nle = CCCC[C@H](N)C(=O)O

Biological target: T1, MDM2 (Homo sapiens, UniProt Q00987)
T1 construct: made in house
T1 sequence (Q00987 whole entry, species assumed): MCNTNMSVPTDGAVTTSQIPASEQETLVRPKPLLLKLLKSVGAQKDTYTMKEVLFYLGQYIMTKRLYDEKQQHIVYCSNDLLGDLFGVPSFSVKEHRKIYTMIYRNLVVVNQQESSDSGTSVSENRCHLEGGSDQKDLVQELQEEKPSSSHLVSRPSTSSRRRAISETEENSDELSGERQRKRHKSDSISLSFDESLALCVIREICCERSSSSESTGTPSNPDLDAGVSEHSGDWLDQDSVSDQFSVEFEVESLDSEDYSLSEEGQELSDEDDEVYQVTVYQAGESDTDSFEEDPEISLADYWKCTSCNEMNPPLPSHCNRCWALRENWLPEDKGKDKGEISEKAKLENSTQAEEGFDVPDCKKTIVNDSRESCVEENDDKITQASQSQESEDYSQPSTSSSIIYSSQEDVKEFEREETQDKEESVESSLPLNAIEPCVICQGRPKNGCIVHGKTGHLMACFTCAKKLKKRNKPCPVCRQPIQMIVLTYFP
Assay: Surface plasmon resonance (SPR) against captured GST-MDM2
Type: binding
Conditions: SPR Biacore T200, 25 °C, PBS-P+; GST-MDM2 captured via anti-GST antibody on CM5 chip; 2-fold dilutions 250 nM to 3.91 nM; association 250 s, dissociation 400 s
Protocol: SPR experiments were performed on a Biacore T200 instrument (GE Healthcare) at 25 °C in PBS-P+ buffer (10× stock; Cytiva Life Sciences #28995084). One mL PP 96-well plates (Greiner #780201) were used for dilution directly in the plates. Anti-GST antibody (Cytiva #27457701) was chemically immobilized on a CM5 series S sensor chip (Cytiva Life Sciences #29149604) by EDC/NHS-mediated coupling. For this, an amine coupling kit (Cytiva Life Sciences #BR100633) and the recommended protocol were followed with the following specifications: 20 μg/mL of antibody diluted in 10 mM NaAc pH 5.0 buffer flowed over both flow channels for 600 s (flow rate 10 μL min^–1).
Kinetic measurements consisted of ligand capture of GST-MDM2 (200 nM, 350 s injection, flow rate 10 μL min^–1, stabilization 60 s), followed by injections (association, 250 s; dissociation, 400 s; flow rate, 30 μL min^–1) of decreasing concentrations of compounds (2-fold cascade dilutions from the starting concentration). The chip was regenerated between cycles by one injection of regeneration solution (10 mM glycine-HCl at pH 1.5) for 10 s at a flow rate of 30 μL min^–1, followed by a 120 s stabilization period. Binding was measured as resonance units over time after blank subtraction, and the data were interpreted using Biacore T200 software (version 3.2). The KD values were calculated based on steady-state affinity (1:1 binding). […]
5. Surface Plasmon Resonance Results […]
dotted lines representing the fittings from which the kinetic values are calculated. The compounds […]
shown in Figure 6 are tested at 250 nM (highest concentration) with a 2-fold dilution series until 3.91 nM (lowest concentration).
SPR Curves of compounds 4.1 and 4.4
4.1: Concentrations tested: 125 nM to 3.91 nM (2-fold dilutions) – KD: ND
Supplementary Figure 4. SPR curve of compound 4.1 against MDM2

Compound | koff | kon
CCCC[C@@H]1NC(=O)[C@H](CC2CCC2)NC(=O)[C@H](CCC(N)=O)NC(=O)[C@H](C)NC(=O)[C@H](Cc2c[nH]c3ccccc23)NC(=O)[C@H](Cc2ccc(O)cc2)NC(=O)[C@H](CCC(N)=O)NC(=O)[C@H](CCCC)NC(=O)[C@H](Cc2ccccc2)NC(=O)[C@H]([C@@H](C)O)NC(=O)[C@H](CC(C)C)NC(=O)CNC(=O)COCC(=O)NCCCC[C@@H](C(=O)N[C@@H](CCCNC(=N)N)C(N)=O)NC(=O)CNC(=O)[C@H](CO)NC1=O [1.1 (Cyclic)] (GLTF[Nle]QYWAQ[Cba][Nle]SGKR-NH2; linker N-15 via Diglycolyl; C-terminus assumed) | 0.0024 s⁻¹ | 320000 M⁻¹ s⁻¹
CCCC[C@H](NC(=O)[C@H](CC1CCC1)NC(=O)[C@H](CCC(N)=O)NC(=O)[C@H](C)NC(=O)[C@H](Cc1c[nH]c2ccccc12)NC(=O)[C@H](Cc1ccc(O)cc1)NC(=O)[C@H](CCC(N)=O)NC(=O)[C@H](CCCC)NC(=O)[C@H](Cc1ccccc1)NC(=O)[C@@H](NC(=O)[C@H](CC(C)C)NC(=O)CNC(C)=O)[C@@H](C)O)C(=O)N[C@@H](CO)C(=O)NCC(=O)N[C@@H](CCCNC(=N)N)C(N)=O [1.1 (Linear)] (Ac-GLTF[Nle]QYWAQ[Cba][Nle]SGR-NH2; N-terminus and C-terminus assumed) | 0.0022 s⁻¹ | 73000 M⁻¹ s⁻¹
CCCC[C@H](NC(=O)[C@H](CC1CCC1)NC(=O)[C@H](CCC(N)=O)NC(=O)[C@H](C)NC(=O)[C@H](Cc1c[nH]c2ccccc12)NC(=O)[C@H](Cc1ccc(O)cc1)NC(=O)[C@H](CCC(N)=O)NC(=O)[C@H](CCCC)NC(=O)[C@H](Cc1ccccc1)NC(=O)[C@@H](NC(=O)[C@H](CC(C)C)NC(=O)CNC(=O)CN(CCNC(=O)CN(CCNC(=O)CN(CCNC(=O)CN(CCNC(=O)[C@H](CCCNC(=N)N)NC(=O)COCCOCCNC(=O)[C@H](CCCNC(=N)N)NC(=O)CN(CCNC(=O)CN(CCNC(=O)CN(CCNC(=O)CN(CCNC(=O)CN(CCNC(=O)CN(CCNC(=O)CN(CCNC(=O)CN(CCNC(=O)[C@H](CCCNC(=N)N)NC(C)=O)C(=O)Cn1cnc2c(=O)[nH]c(N)nc21)C(=O)Cn1ccc(N)nc1=O)C(=O)Cn1ccc(N)nc1=O)C(=O)Cn1cnc2c(=O)[nH]c(N)nc21)C(=O)Cn1cc(C)c(=O)[nH]c1=O)C(=O)Cn1cnc2c(N)ncnc21)C(=O)Cn1cnc2c(=O)[nH]c(N)nc21)C(=O)Cn1cnc2c(=O)[nH]c(N)nc21)C(=O)Cn1ccc(N)nc1=O)C(=O)Cn1ccc(N)nc1=O)C(=O)Cn1cc(C)c(=O)[nH]c1=O)C(=O)Cn1cnc2c(N)ncnc21)[C@@H](C)O)C(=O)N[C@@H](CO)C(=O)NCC(=O)NCCN(CC(=O)NCCN(CC(=O)NCCN(CC(=O)NCCN(CC(=O)N[C@@H](CCCNC(=N)N)C(N)=O)C(=O)Cn1ccc(N)nc1=O)C(=O)Cn1cnc2c(=O)[nH]c(N)nc21)C(=O)Cn1cnc2c(=O)[nH]c(N)nc21)C(=O)Cn1ccc(N)nc1=O [1.1 (PNA)] | 0.0014 s⁻¹ | 1.9e+06 M⁻¹ s⁻¹
CCCC[C@H](NC(=O)[C@H](CC1CCC1)NC(=O)[C@H](CCC(N)=O)NC(=O)[C@H](C)NC(=O)[C@H](Cc1c[nH]c2ccccc12)NC(=O)[C@H](Cc1ccc(O)cc1)NC(=O)[C@H](CCC(N)=O)NC(=O)[C@H](CCCC)NC(=O)[C@H](Cc1ccc(F)c(F)c1)NC(=O)[C@@H](NC(=O)[C@H](CC(C)C)NC(=O)CNC(=O)CN(CCNC(=O)CN(CCNC(=O)CN(CCNC(=O)CN(CCNC(=O)[C@H](CCCNC(=N)N)NC(=O)COCCOCCNC(=O)[C@H](CCCNC(=N)N)NC(=O)CN(CCNC(=O)CN(CCNC(=O)CN(CCNC(=O)CN(CCNC(=O)CN(CCNC(=O)CN(CCNC(=O)CN(CCNC(=O)CN(CCNC(=O)[C@H](CCCNC(=N)N)NC(C)=O)C(=O)Cn1cnc2c(=O)[nH]c(N)nc21)C(=O)Cn1ccc(N)nc1=O)C(=O)Cn1ccc(N)nc1=O)C(=O)Cn1cnc2c(=O)[nH]c(N)nc21)C(=O)Cn1cc(C)c(=O)[nH]c1=O)C(=O)Cn1cnc2c(N)ncnc21)C(=O)Cn1cnc2c(=O)[nH]c(N)nc21)C(=O)Cn1cnc2c(=O)[nH]c(N)nc21)C(=O)Cn1ccc(N)nc1=O)C(=O)Cn1ccc(N)nc1=O)C(=O)Cn1cc(C)c(=O)[nH]c1=O)C(=O)Cn1cnc2c(N)ncnc21)[C@@H](C)O)C(=O)N[C@@H](CO)C(=O)NCC(=O)NCCN(CC(=O)NCCN(CC(=O)NCCN(CC(=O)NCCN(CC(=O)N[C@@H](CCCNC(=N)N)C(N)=O)C(=O)Cn1ccc(N)nc1=O)C(=O)Cn1cnc2c(=O)[nH]c(N)nc21)C(=O)Cn1cnc2c(=O)[nH]c(N)nc21)C(=O)Cn1ccc(N)nc1=O [1.2 (PNA)] | 0.002 s⁻¹ | 1.2e+06 M⁻¹ s⁻¹

More lines, now with the values ahead:

koff | kon | Compound
0.0021 s⁻¹ | 1e+06 M⁻¹ s⁻¹ | CCCC[C@H](NC(=O)[C@H](CC(C)C)NC(=O)[C@H](CCC(N)=O)NC(=O)[C@H](C)NC(=O)[C@H](Cc1c[nH]c2ccccc12)NC(=O)[C@H](Cc1ccc(O)cc1)NC(=O)[C@H](CCC(N)=O)NC(=O)[C@H](CCCC)NC(=O)[C@H](Cc1ccccc1)NC(=O)[C@@H](NC(=O)[C@H](CC(C)C)NC(=O)CNC(=O)CN(CCNC(=O)CN(CCNC(=O)CN(CCNC(=O)CN(CCNC(=O)[C@H](CCCNC(=N)N)NC(=O)COCCOCCNC(=O)[C@H](CCCNC(=N)N)NC(=O)CN(CCNC(=O)CN(CCNC(=O)CN(CCNC(=O)CN(CCNC(=O)CN(CCNC(=O)CN(CCNC(=O)CN(CCNC(=O)CN(CCNC(=O)[C@H](CCCNC(=N)N)NC(C)=O)C(=O)Cn1cnc2c(=O)[nH]c(N)nc21)C(=O)Cn1ccc(N)nc1=O)C(=O)Cn1ccc(N)nc1=O)C(=O)Cn1cnc2c(=O)[nH]c(N)nc21)C(=O)Cn1cc(C)c(=O)[nH]c1=O)C(=O)Cn1cnc2c(N)ncnc21)C(=O)Cn1cnc2c(=O)[nH]c(N)nc21)C(=O)Cn1cnc2c(=O)[nH]c(N)nc21)C(=O)Cn1ccc(N)nc1=O)C(=O)Cn1ccc(N)nc1=O)C(=O)Cn1cc(C)c(=O)[nH]c1=O)C(=O)Cn1cnc2c(N)ncnc21)[C@@H](C)O)C(=O)N[C@@H](CO)C(=O)NCC(=O)NCCN(CC(=O)NCCN(CC(=O)NCCN(CC(=O)NCCN(CC(=O)N[C@@H](CCCNC(=N)N)C(N)=O)C(=O)Cn1ccc(N)nc1=O)C(=O)Cn1cnc2c(=O)[nH]c(N)nc21)C(=O)Cn1cnc2c(=O)[nH]c(N)nc21)C(=O)Cn1ccc(N)nc1=O [2.1 (PNA)]
0.0029 s⁻¹ | 830000 M⁻¹ s⁻¹ | CCCC[C@H](NC(=O)[C@H](CC(C)C)NC(=O)[C@H](CCC(N)=O)NC(=O)[C@H](C)NC(=O)[C@H](Cc1c[nH]c2ccccc12)NC(=O)[C@H](Cc1ccc(O)cc1)NC(=O)[C@H](CCC(N)=O)NC(=O)[C@H](CCCC)NC(=O)[C@H](Cc1ccc(F)c(F)c1)NC(=O)[C@@H](NC(=O)[C@H](CC(C)C)NC(=O)CNC(=O)CN(CCNC(=O)CN(CCNC(=O)CN(CCNC(=O)CN(CCNC(=O)[C@H](CCCNC(=N)N)NC(=O)COCCOCCNC(=O)[C@H](CCCNC(=N)N)NC(=O)CN(CCNC(=O)CN(CCNC(=O)CN(CCNC(=O)CN(CCNC(=O)CN(CCNC(=O)CN(CCNC(=O)CN(CCNC(=O)CN(CCNC(=O)[C@H](CCCNC(=N)N)NC(C)=O)C(=O)Cn1cnc2c(=O)[nH]c(N)nc21)C(=O)Cn1ccc(N)nc1=O)C(=O)Cn1ccc(N)nc1=O)C(=O)Cn1cnc2c(=O)[nH]c(N)nc21)C(=O)Cn1cc(C)c(=O)[nH]c1=O)C(=O)Cn1cnc2c(N)ncnc21)C(=O)Cn1cnc2c(=O)[nH]c(N)nc21)C(=O)Cn1cnc2c(=O)[nH]c(N)nc21)C(=O)Cn1ccc(N)nc1=O)C(=O)Cn1ccc(N)nc1=O)C(=O)Cn1cc(C)c(=O)[nH]c1=O)C(=O)Cn1cnc2c(N)ncnc21)[C@@H](C)O)C(=O)N[C@@H](CO)C(=O)NCC(=O)NCCN(CC(=O)NCCN(CC(=O)NCCN(CC(=O)NCCN(CC(=O)N[C@@H](CCCNC(=N)N)C(N)=O)C(=O)Cn1ccc(N)nc1=O)C(=O)Cn1cnc2c(=O)[nH]c(N)nc21)C(=O)Cn1cnc2c(=O)[nH]c(N)nc21)C(=O)Cn1ccc(N)nc1=O [2.2 (PNA)]

Same assay, conditions: linear peptide without PNA versus PNA-constrained 1.1; 30 versus 0.7 nM

loss of binding | Compound
40 fold | CCCC[C@H](NC(=O)[C@H](CC1CCC1)NC(=O)[C@H](CCC(N)=O)NC(=O)[C@H](C)NC(=O)[C@H](Cc1c[nH]c2ccccc12)NC(=O)[C@H](Cc1ccc(O)cc1)NC(=O)[C@H](CCC(N)=O)NC(=O)[C@H](CCCC)NC(=O)[C@H](Cc1ccccc1)NC(=O)[C@@H](NC(=O)[C@H](CC(C)C)NC(=O)CNC(C)=O)[C@@H](C)O)C(=O)N[C@@H](CO)C(=O)NCC(=O)N[C@@H](CCCNC(=N)N)C(N)=O [1.1 (Linear)] (Ac-GLTF[Nle]QYWAQ[Cba][Nle]SGR-NH2; N-terminus and C-terminus assumed)
